Where a name gives a salt, the structure may show the parent alone.
Each compound was assayed on influx of neutrophils to the lung in LPS-challenged rats (assay: Rat LPS neutrophilia model). Details: intratracheal, LPS aerosol 100 ug/ml, in at least one of the range of conditions tested, significance p<0.05.
Type: in vivo
Procedure: Rat LPS Neutrophilia Model
The effect of compounds on the influx of neutrophils to the lung in LPS-challenged rats is evaluated as follows. The test compound is suspended in one of the following solutions: 0.5% tween 80/PBS, 0.5% tween 80/saline, 10% EtOH/saline (with pH adjusted to 2.0, or 8.0 with HCl, or unadjusted), Saline (pH 2.0, 6.5 or 8.0, 0.5% Tragacanth, 1% DMSO/20% Encapsin/Saline, or acidified 5% Tragacanth. The suspension process may be aided by the use of a glass homogenizer. For intratracheal administration, the animals are anesthetized with inhaled isoflurane and placed in a supine position, the trachea is intubated with a steel gavage needle (1.5 inch, 22 gauge, small ball) or a Penn-Century Microsprayer Aerosolizer (model IA-1B) and 200 ul of dosing solution is delivered. The animals are visually monitored during the recovery process, which typically occurs within two minutes. It is noted that the test compounds may be alternatively administered via the microsprayer in a dry powder blend with a suitable excipient, such as lactose.
Rats treated with compound or vehicle (15 min-24 hours pretreatment) are exposed to an LPS aerosol (100 ug/ml) for 15 min. Four hours later the rats are euthanized with pentobarbital (100 mg/kg, i.p.) and the airways are lavaged with 5 washes of 5 ml of phosphate buffered saline. The harvested cells are stained (Diffquick) and counted to determine total and differential cell data. […] Inhibition of neutrophil levels relative to no compound controls is calculated based on the differential counts.
The data is obtained as % inhibition using a particular concentration and pretreat time.
For `CCCNC(=O)c1ccc(C)c(-c2nc(N(C)CCCN(C)C)nc3c2ccc(=O)n3-c2c(F)cccc2F)c1` [Example 104, 3-{8-(2,6-difluorophenyl)-2-[[3-(dimethylamino)propyl](methyl)amino]-7-oxo-7,8-dihydropyrido[2,3-d]pyrimidin-4-yl}-4-methyl-N-propylbenzamide], the “inhibition of neutrophilia (neutrophil levels in airway lavage relative to no compound controls)” value was “statistically significant inhibition of neutrophilia”. With `CCCNC(=O)c1ccc(C)c(-c2nc(NCCN(C)C)nc3c2ccc(=O)n3-c2c(F)cccc2F)c1` [Example 105, 3-(8-(2,6-difluorophenyl)-2-{[2-(dimethylamino)ethyl]amino}-7-oxo-7,8-dihydropyrido[2,3-d]pyrimidin-4-yl)-4-methyl-N-propylbenzamide] the “inhibition of neutrophilia (neutrophil levels in airway lavage relative to no compound controls)” value was “statistically significant inhibition of neutrophilia”. In the case of `Cc1ccc(C(=O)Nc2nccs2)cc1-c1nc(N(C)CCCN(C)C)nc2c1ccc(=O)n2-c1c(F)cccc1F` [Example 107, 3-{8-(2,6-difluorophenyl)-2-[[3-(dimethylamino)propyl](methyl)amino]-7-oxo-7,8-dihydropyrido[2,3-d]pyrimidin-4-yl}-4-methyl-N-1,3-thiazol-2-ylbenzamide], the “inhibition of neutrophilia (neutrophil levels in airway lavage relative to no compound controls)” value was “statistically significant inhibition of neutrophilia”. With `Cc1ccc(C(=O)Nc2nccs2)cc1-c1nc(NCCN(C)C)nc2c1ccc(=O)n2-c1c(F)cccc1F` [Example 109, 3-(8-(2,6-difluorophenyl)-2-{[2-(dimethylamino)ethyl]amino}-7-oxo-7,8-dihydropyrido[2,3-d]pyrimidin-4-yl)-4-methyl-N-1,3-thiazol-2-ylbenzamide] the “inhibition of neutrophilia (neutrophil levels in airway lavage relative to no compound controls)” value was “statistically significant inhibition of neutrophilia”. With `Cc1ccc(C(=O)Nc2ccc(F)cc2)cc1-c1nc(NCCN(C)C)nc2c1ccc(=O)n2-c1c(F)cccc1F` [Example 112, 3-(8-(2,6-difluorophenyl)-2-{[2-(dimethylamino)ethyl]amino}-7-oxo-7,8-dihydropyrido[2,3-d]pyrimidin-4-yl)-N-(4-fluorophenyl)-4-methylbenzamide] the “inhibition of neutrophilia (neutrophil levels in airway lavage relative to no compound controls)” value was “statistically nonsignificant inhibition of neutrophilia”. With `Cc1ccc(C(=O)Nc2ccc(F)cc2)cc1-c1nc(N(C)CCCN(C)C)nc2c1ccc(=O)n2-c1c(F)cccc1F` [Example 115, 3-{8-(2,6-difluorophenyl)-2-[[3-(dimethylamino)propyl](methyl)amino]-7-oxo-7,8-dihydropyrido[2,3-d]pyrimidin-4-yl}-N-(4-fluorophenyl)-4-methylbenzamide] the “inhibition of neutrophilia (neutrophil levels in airway lavage relative to no compound controls)” value was “statistically nonsignificant inhibition of neutrophilia”. `Cc1ccc(C(=O)NC(C)C)cc1-c1nc(NCCN(C)C)nc2c1ccc(=O)n2-c1c(F)cccc1F` [Example 117, 3-(8-(2,6-difluorophenyl)-2-{[2-(dimethylamino)ethyl]amino}-7-oxo-7,8-dihydropyrido[2,3-d]pyrimidin-4-yl)-4-methyl-N-(1-methylethyl)benzamide] was tested, and the “inhibition of neutrophilia (neutrophil levels in airway lavage relative to no compound controls)” value was “statistically significant inhibition of neutrophilia”. `CCN(CC)CCCNc1nc(-c2cc(C(=O)NC)ccc2C)c2ccc(=O)n(-c3c(F)cccc3F)c2n1` [Example 119, 3-[2-{[3-(diethylamino)propyl]amino}-8-(2,6-difluorophenyl)-7-oxo-7,8-dihydropyrido[2,3-d]pyrimidin-4-yl]-N,4-dimethylbenzamide] was tested, and the “inhibition of neutrophilia (neutrophil levels in airway lavage relative to no compound controls)” value was “statistically significant inhibition of neutrophilia”. `CCN(CC)CCCNc1nc(-c2cc(C(=O)N[C@H](C)C(C)C)ccc2C)c2ccc(=O)n(-c3c(F)cccc3F)c2n1` [Example 130] was tested, and the “inhibition of neutrophilia (neutrophil levels in airway lavage relative to no compound controls)” value was “statistically nonsignificant inhibition of neutrophilia”. `CCN(CC)CCCNc1nc(-c2cc(C(=O)NCC3CCCC3)ccc2C)c2ccc(=O)n(-c3c(F)cccc3F)c2n1` [Example 132, N-(cyclopentylmethyl)-3-[2-{[3-(diethylamino)propyl]amino}-8-(2,6-difluorophenyl)-7-oxo-7,8-dihydropyrido[2,3-d]pyrimidin-4-yl]-4-methylbenzamidetrifluoroacetate] was tested, and the “inhibition of neutrophilia (neutrophil levels in airway lavage relative to no compound controls)” value was “statistically nonsignificant inhibition of neutrophilia”. With `CCN(CC)CCCNc1nc(-c2cc(C(=O)NCCF)ccc2C)c2ccc(=O)n(-c3c(F)cccc3F)c2n1` [Example 133, 3-[2-{[3-(diethylamino)propyl]amino}-8-(2,6-difluorophenyl)-7-oxo-7,8-dihydropyrido[2,3-d]pyrimidin-4-yl]-N-(2-fluoroethyl)-4-methylbenzamidetrifluoroacetate] the “inhibition of neutrophilia (neutrophil levels in airway lavage relative to no compound controls)” value was “statistically significant inhibition of neutrophilia”. For `CCN(CC)CCCNc1nc(-c2cc(C(=O)NCCOC)ccc2C)c2ccc(=O)n(-c3c(F)cccc3F)c2n1` [Example 134, 3-[2-{[3-(diethylamino)propyl]amino}-8-(2,6-difluorophenyl)-7-oxo-7,8-dihydropyrido[2,3-d]pyrimidin-4-yl]-4-methyl-N-[2-(methyloxy)ethyl]benzamidetrifluoroacetate], the “inhibition of neutrophilia (neutrophil levels in airway lavage relative to no compound controls)” value was “statistically nonsignificant inhibition of neutrophilia”. With `CCN(CC)CCCNc1nc(-c2cc(C(=O)NCC3CCCCC3)ccc2C)c2ccc(=O)n(-c3c(F)cccc3F)c2n1` [Example 135, N-(cyclohexylmethyl)-3-[2-{[3-(diethylamino)propyl]amino}-8-(2,6-difluorophenyl)-7-oxo-7,8-dihydropyrido[2,3-d]pyrimidin-4-yl]-4-methylbenzamidetrifluoroacetate] the “inhibition of neutrophilia (neutrophil levels in airway lavage relative to no compound controls)” value was “inactive”. For `CCN(CC)CCCNc1nc(-c2cc(C(=O)NC3CCC3)ccc2C)c2ccc(=O)n(-c3c(F)cccc3F)c2n1` [Example 137, N-cyclobutyl-3-[2-{[3-(diethylamino)propyl]amino}-8-(2,6-difluorophenyl)-7-oxo-7,8-dihydropyrido[2,3-d]pyrimidin-4-yl]-4-methylbenzamide trifluoroacetate], the “inhibition of neutrophilia (neutrophil levels in airway lavage relative to no compound controls)” value was “statistically significant inhibition of neutrophilia”. With `CCN(CC)CCCNc1nc(-c2cc(C(=O)NCC3CC3)ccc2C)c2ccc(=O)n(-c3c(F)cccc3F)c2n1` [Example 138, N-(cyclopropylmethyl)-3-[2-{[3-(diethylamino)propyl]amino}-8-(2,6-difluorophenyl)-7-oxo-7,8-dihydropyrido[2,3-d]pyrimidin-4-yl]-4-methylbenzamide trifluoroacetate] the “inhibition of neutrophilia (neutrophil levels in airway lavage relative to no compound controls)” value was “statistically nonsignificant inhibition of neutrophilia”. For `CCN(CC)CCCNc1nc(-c2cc(C(=O)Nc3ccccc3)ccc2C)c2ccc(=O)n(-c3c(F)cccc3F)c2n1` [Example 147, 3-[2-{[3-(diethylamino)propyl]amino}-8-(2,6-difluorophenyl)-7-oxo-7,8-dihydropyrido[2,3-d]pyrimidin-4-yl]-4-methyl-N-phenylbenzamide], the “inhibition of neutrophilia (neutrophil levels in airway lavage relative to no compound controls)” value was “statistically nonsignificant inhibition of neutrophilia”. In the case of `CCN(CC)CCCNc1nc(-c2cc(C(=O)N[C@@H](C)c3ccccc3)ccc2C)c2ccc(=O)n(-c3c(F)cccc3F)c2n1` [Example 149, 3-[2-{[3-(diethylamino)propyl]amino}-8-(2,6-difluorophenyl)-7-oxo-7,8-dihydropyrido[2,3-d]pyrimidin-4-yl]-4-methyl-N-[(1S)-1-phenylethyl]benzamide], the “inhibition of neutrophilia (neutrophil levels in airway lavage relative to no compound controls)” value was “inactive”. `CCN(CC)CCCNc1nc(-c2cc(C(=O)Nc3ccc(F)cc3)ccc2C)c2ccc(=O)n(-c3c(F)cccc3F)c2n1` [Example 160, 3-[2-{[3-(diethylamino)propyl]amino}-8-(2,6-difluorophenyl)-7-oxo-7,8-dihydropyrido[2,3-d]pyrimidin-4-yl]-N-(4-fluorophenyl)-4-methylbenzamide] was tested, and the “inhibition of neutrophilia (neutrophil levels in airway lavage relative to no compound controls)” value was “statistically significant inhibition of neutrophilia”. `CCC(C)NC(=O)c1ccc(C)c(-c2nc(NCCCN(CC)CC)nc3c2ccc(=O)n3-c2c(F)cccc2F)c1` (centres unmarked) [Example 162, 3-[2-{[3-(diethylamino)propyl]amino}-8-(2,6-difluorophenyl)-7-oxo-7,8-dihydropyrido[2,3-d]pyrimidin-4-yl]-4-methyl-N-(1-methylpropyl)benzamide] was tested, and the “inhibition of neutrophilia (neutrophil levels in airway lavage relative to no compound controls)” value was “statistically nonsignificant inhibition of neutrophilia”. For `CCCNC(=O)c1ccc(C)c(-c2nc(N3CCC(N4CCC(C)CC4)CC3)nc3c2ccc(=O)n3-c2c(F)cccc2F)c1` [Example 166, 3-[8-(2,6-difluorophenyl)-2-(4-methyl-1,4′-bipiperidin-1′-yl)-7-oxo-7,8-dihydropyrido[2,3-d]pyrimidin-4-yl]-4-methyl-N-propylbenzamide], the “inhibition of neutrophilia (neutrophil levels in airway lavage relative to no compound controls)” value was “statistically significant inhibition of neutrophilia”.
